Key:
[1] = tested on: RAS-mutant NSCLC cell lines; assay: Induction of apoptosis (caspase 3/7 activation) in panel of RAS-mutant NSCLC cell lines; type: cell-based; settings: for Response Rate (sensitivity/total lines tested), Cell Apoptosis (capsase 3/7): Ras mut NSCLC cell lines, caspase 3/7 activation, 24 hours of treatment
Experimental: (§1) A panel of 24 non-small cell lung carcinoma (NSCLC) cell lines harboring RAS mutations was analyzed for genomic alterations, gene expression profiling and protein phosphorylation in MAPK and PI3K pathways. Inhibition of cell growth and induction of apoptosis were determined by CellTiter-Glo® and caspase 3/7 activation assays after 72 and 24 hours of treatment, respectively.

[2] = tested on: RAS-mutant NSCLC cell lines; assay: Inhibition of cell growth (CellTiter-Glo) in panel of RAS-mutant NSCLC cell lines; settings: for Response Rate (sensitivity/total lines tested), Cell growth inhibition: Ras mut NSCLC cell lines, CellTiter-Glo, 72 hours of treatment; for Single agent activity (in words): agent alone, cell growth inhibition and apoptosis
Experimental: Cells are plated in 384-well plates at 500 cells/well in culture media appropriate for each cell type, supplemented with 10% FBS and 1% penicillin/streptomycin, and incubated overnight at 37° C., 5% CO2. Cells are treated in a grid manner with dilution of Compound A^2 (20 dilutions, including no compound, of 2-fold dilutions starting from 1-20 μM depending of compound) from left to right on 384-well plate and also treated with Compound B^2 (20 dilutions, including no compound, of 2-fold dilutions starting from 1-20 μM depending of compound) from top to bottom on 384-well plate and incubated as above for a further 72 hours. In some instances compounds are added in a staggered manner and incubation time can be extended up to 7 days. Cell growth is measured using CellTiter-Glo® reagent according to the manufacturer's protocol and signals are read on a PerkinElmer EnVision™ reader set for luminescence mode with a 0.5-second read.
Results are expressed as a percentage of the t=0 value and plotted against compound(s) concentration. The t=0 value is normalized to 100% and represents the number of cells present at the time of compound addition. The cellular response is determined for each compound and/or compound combination using a 4- or 6-parameter curve fit of cell viability against concentration using the IDBS XLfit plug-in for Microsoft Excel software and determining the concentration required for 50% inhibition of cell growth (gIC50). Background correction is made by subtraction of values from wells containing no cells.
as §1

| Molecule | Response Rate (sensitivity/total lines tested), Cell Apoptosis (capsase 3/7) [1] | Response Rate (sensitivity/total lines tested), Cell growth inhibition [2] | Single agent activity (in words) ([2]; RAS-mutant NSCLC lines) | Apoptosis (in words) ([1]; RAS-mutant NSCLC lines, single agent) | Cell growth inhibition (in words) ([2]; RAS-mutant NSCLC lines) |
| --- | --- | --- | --- | --- | --- |
| Cc1nc(Nc2ncc(C(=O)Nc3c(C)cccc3Cl)s2)cc(N2CCN(CCO)CC2)n1 [Dasatinib] | 0% (0/10) | 20% (2/10) |  |  |  |
| C#Cc1cccc(Nc2ncnc3cc(OCCOC)c(OCCOC)cc23)c1 [Erlotinib] | 0% (0/24) | 0% (0/24) | little or no activity |  |  |
| Nc1nc2[nH]cc(CCc3ccc(C(=O)N[C@@H](CCC(=O)O)C(=O)O)cc3)c2c(=O)[nH]1 [Pemtrexed] |  | 38% (4/9) |  |  |  |
| Cn1ncc(Cl)c1-c1cc(C(=O)N[C@H](CN)Cc2cccc(F)c2)sc1Cl [AKT inhibitor, N-{(1S)-2-amino-1-[(3-fluorophenyl)methyl]ethyl}-5-chloro-4-(4-chloro-1-methyl-1H-pyrazol-5-yl)-2-thiophenecarboxamide] | 0% (0/9) | 6% (1/18) | little or no activity |  |  |
| COc1ncc(-c2ccc3nccc(-c4ccnnc4)c3c2)cc1NS(=O)(=O)c1ccc(F)cc1F [PI3k/mTOR inhibitor, 2,4-difluoro-N-{2-(methyloxy)-5-[4-(4-pyridazinyl)-6-quinolinyl]-3-pyridinyl}benzenesulfonamide] | 6% (1/16) | 69% (9/13) |  | little apoptosis | potently inhibited cell growth |
| dihydroxy-12-[(2R)-1-[(1S,3R,4R)-4-(2-hydroxyethoxy)-3-methoxycyclohexyl]propan-2-yl]-19,30-dimethoxy-15,17,21,23,29,35-hexamethyl-11,36-dioxa-4-azatricyclo[30.3.1.0^4.9]hexatriaconta-16,24,26,28-tetraene-2,3,10,14,20-pentone [Everolimus] | 0% (0/24) | 8% (2/24) | little or no activity |  |  |

— patent US20130231346A1, “METHODS OF TREATING CANCER” (GLAXOSMITHKLINE INTELLECTUAL PROPERTY (NO.2) LIMITED, priority 2010, published 2013)
